In brackets after ≈: the same amount, converted by molar mass. Where two headings read alike, the source gives them in different places.

Data on 5 molecules can be found in paper PMC7154053, “Chemical, Metabolic, and Cellular Characterization of a FtsZ Inhibitor Effective Against Burkholderia cenocepacia” (Frontiers in Microbiology, 2020).

For one series, the system named is B. cenocepacia J2315. The experiment in a line: MIC, 2-fold microdilution, resazurin method. In kind it is cell-based, Burkholderia cenocepacia. As to conditions: for MIC: Burkholderia cenocepacia, J2315. As for the experimental part:
(§1) Burkholderia cenocepacia strains, Escherichia coli ATCC 25922, Pseudomonas aeruginosa PAO1, and Staphylococcus aureus ATCC 25923 were grown in Luria-Bertani (LB) medium (Difco), if not differently specified, with shaking at 200 rpm, or on LB agar, at 37°C.
(§2) The microtiter plates were incubated at 37°C for 48 (for B. cenocepacia) or 24 h (for all the other strains) and growth was determined by the resazurin method (Martin et al., [2006]). A solution of resazurin sodium salt (Sigma Aldrich) was prepared at 0.01% in distilled water and filter-sterilized. Thirty microliter of resazurin solution were added to each well after 1 or 2 days of incubation at 37°C, and the microtiters were re-incubated at the same temperature for 4 h. The MIC was defined as the lowest concentration of the drug that prevented a change in color from blue to pink, which indicates bacterial growth.
(§3) Three independent biological replicates were used for each MIC determination.

Another series deals with E. coli ATCC 25922. The series is described as follows: MIC, 2-fold microdilution, resazurin method. The following applies: Escherichia coli, ATCC25922. In kind it is cell-based. As for the experimental part: as §1, §2, §3
The next series relates to P. aeruginosa PAO1. The experiment in a line: MIC, 2-fold microdilution, resazurin method. In kind it is cell-based. As to conditions: Pseudomonas aeruginosa, PAO1. The protocol: as §1, §2, §3
Another series relates to S. aureus ATCC 25923. The series is described as follows: MIC, 2-fold microdilution, resazurin method. In kind it is cell-based, Staphylococcus aureus. The following applies: Staphylococcus aureus, ATCC25923. As for the experimental part: as §1, §2, §3
The target of series [1] is Burkholderia cenocepacia purified FtsZ protein (Burkholderia cenocepacia, UniProt B4E5Y7). The experiment in a line: biochemical. In kind it is biochemical. The following applies: for Inhibition of Bc FtsZ At 100 μM: 100 μM compound; for Inhibition of Bc FtsZ At 100 μM / Inhibits B. cenocepacia FtsZ GTPase at 100µM?: Yes/No; for Inhibits B. cenocepacia FtsZ GTPase at 100µM?: Supplementary Table 1. As for the experimental part:
All the recombinant FtsZ proteins were expressed at 20°C overnight in E. coli BL21(DE3) cells, upon induction with 0.5 mM IPTG, and purified using the same protocol assessed for the wild-type B. cenocepacia FtsZ (Hogan et al., [2018]).
GTPase enzyme activity was determined using a pyruvate kinase/L-lactic dehydrogenase (PK/LDH) spectrophotometric coupled assay (Ingerman and Nunnari, [2005]). The assays were performed at 30°C, in a reaction mixture containing […] Hepes pH 7.5, 5 mM MgCl2, 5 mM KCl, 10 U PK/LDH, 0.25 mM NADH, 0.25 mM PEP, and 5–10 μM FtsZ, and initiated by the addition of 0.5 mM GTP. Alternatively, GTPase activity was determined by measuring the release of phosphate using the malachite green assay (Baykov et al., [1988]).
(1) A[I]=A[0]×(1-[I]/[I]+IC50)
where A[I] is the enzyme activity at inhibitor concentration [I] and A[0] is the enzyme activity without inhibitor.

Substrate in series [2]: COC(=O)CSc1ccc2nsnc2c1[N+](=O)[O-]
The series is described as follows: BcNR nitroreductase steady-state kinetics (NADPH decrease at 340 nm). In kind it is biochemical, Burkholderia cenocepacia. The following applies: other: compound as substrate of BcNR; pH 8.0; 37.0 °C. As for the experimental part: (§4) The reaction mixture typically contained 50 mM potassium phosphate pH 8.0, 50 mM KCl, 5–10 μM BcNR, and reactions were started by adding the substrate. Steady-state kinetics parameters were determined by assaying the enzyme at variable concentrations of substrate (10–500 μM). The experiments were performed in triplicate, and the kinetic constants Km and kcat determined by fitting the data to the Michaelis-Menten equation using Origin 8 software.

Substrate in series [3]: O=C(O)c1ccc([N+](=O)[O-])cc1
Described as above. In kind it is biochemical, Burkholderia cenocepacia. The following applies: other: compound as substrate of BcNR; pH 8.0; 37.0 °C. As for the experimental part: as §4

The mark [4] stands for this setting: LB, 48 h, read-out: MIC B. cenocepacia J2315.
The mark [5] stands for this setting: Supplementary Table 1, read-out: MIC (µg/ml) B. cenocepacia J2315.
The mark [6] stands for this setting: LB, 24 h, read-out: MIC E. coli 25922.
Where [7] appears, read: Supplementary Table 1, read-out: MIC (µg/ml) E. coli 25922.
[8] abbreviates: LB, 24 h, read-out: MIC P. aeruginosa PAO1.
Setting [9] is: Supplementary Table 1, read-out: MIC (µg/ml) P. aeruginosa PAO1.
[10] abbreviates: LB, 24 h, read-out: MIC S. aureus 25923.
Where [11] appears, read: Supplementary Table 1, read-out: MIC (µg/ml) S. aureus 25923.

Chain of Burkholderia cenocepacia purified FtsZ protein (B4E5Y7 entry or part of it): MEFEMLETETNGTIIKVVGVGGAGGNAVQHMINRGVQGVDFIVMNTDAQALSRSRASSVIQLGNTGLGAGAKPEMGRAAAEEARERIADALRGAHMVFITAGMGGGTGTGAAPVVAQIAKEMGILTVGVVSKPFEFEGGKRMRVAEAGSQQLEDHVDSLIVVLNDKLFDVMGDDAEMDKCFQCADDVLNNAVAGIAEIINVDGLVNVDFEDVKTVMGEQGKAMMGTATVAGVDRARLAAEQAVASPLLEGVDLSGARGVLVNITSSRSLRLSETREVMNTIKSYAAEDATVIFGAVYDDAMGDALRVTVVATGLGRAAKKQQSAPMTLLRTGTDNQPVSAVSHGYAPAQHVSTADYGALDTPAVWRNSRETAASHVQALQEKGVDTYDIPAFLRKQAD

Consider `CCOC(=O)C(C)Sc1ccc2nsnc2c1[N+](=O)[O-]` (stereo not drawn) [compound 11826110], for which the melting point lay in the range of 153 to 155 °C. The MIC in the series with B. cenocepacia J2315 (setting [4]) was determined as 16 µg/mL (≈ 51.1 µM). Moreover, in the series on B. cenocepacia J2315 (setting [5]), the MIC is 16 µg/mL (≈ 51.1 µM). Also, the “activity compared with C109, in words” value in the series with B. cenocepacia J2315 (SAR statements, against both bacteria and the purified enzyme) is on record as “partially lost activity”. Moreover, the MIC in the series with E. coli ATCC 25922 (setting [6]) came out at 32 µg/mL (≈ 102 µM). In addition, the MIC with E. coli ATCC 25922 (setting [7]) stood at 32 µg/mL (≈ 102 µM). In addition, in the series with P. aeruginosa PAO1 (setting [8]), the MIC is more than 256 µg/mL. For the same molecule, in the series with P. aeruginosa PAO1 (setting [9]), the MIC is more than 256 µg/mL. Also, the MIC with S. aureus ATCC 25923 (setting [10]) was found to be 32 µg/mL (≈ 102 µM). The MIC in the series on S. aureus ATCC 25923 (setting [11]) amounted to 32 µg/mL (≈ 102 µM). Besides, in series [1], the IC50 is more than 100 µM, the “Inhibition of Bc FtsZ At 100 μM” value is recorded as “No” and the “Inhibits B. cenocepacia FtsZ GTPase at 100µM?” value is “No”.

Regarding `COC(=O)C(C)Sc1ccc2nsnc2c1[N+](=O)[O-]` (stereo not drawn) [compound 11826363], the melting point lay in the range of 161 to 163 °C. The MIC with B. cenocepacia J2315 (setting [4]) came to 16 µg/mL (≈ 53.5 µM). For the same molecule, the MIC in the series with B. cenocepacia J2315 (setting [5]) amounted to 16 µg/mL (≈ 53.5 µM). Besides, in the series with E. coli ATCC 25922 (setting [6]), the MIC worked out at 16 µg/mL (≈ 53.5 µM). Besides, in the series on E. coli ATCC 25922 (setting [7]), the MIC came to 16 µg/mL (≈ 53.5 µM). In the series with P. aeruginosa PAO1 (setting [8]), the MIC was found to be 256 µg/mL (≈ 855 µM). Besides, the MIC with P. aeruginosa PAO1 (setting [9]) was found to be 256 µg/mL (≈ 855 µM). Further, the MIC with S. aureus ATCC 25923 (setting [10]) is 64 µg/mL (≈ 214 µM). For the same molecule, the MIC in the series with S. aureus ATCC 25923 (setting [11]) stood at 64 µg/mL (≈ 214 µM). Further, in series [1], the IC50 was 30 µM, the “Inhibition of Bc FtsZ At 100 μM” value is listed as “Yes” and the “Inhibits B. cenocepacia FtsZ GTPase at 100µM?” value is “Yes”.

In the case of `COC(=O)CSc1c(C)cc2nsnc2c1[N+](=O)[O-]` [compound 11926141], the melting point lay in the range of 172 to 174 °C. Further, the MIC in the series on B. cenocepacia J2315 (setting [4]) was more than 256 µg/mL. The MIC in the series with B. cenocepacia J2315 (setting [5]) was more than 256 µg/mL. The MIC with E. coli ATCC 25922 (setting [6]) is more than 256 µg/mL. The MIC in the series with E. coli ATCC 25922 (setting [7]) was more than 256 µg/mL. In the series on P. aeruginosa PAO1 (setting [8]), the MIC was more than 256 µg/mL. Moreover, the MIC in the series with P. aeruginosa PAO1 (setting [9]) is more than 256 µg/mL. Further, in the series with S. aureus ATCC 25923 (setting [10]), the MIC was 32 µg/mL (≈ 107 µM). Moreover, in the series with S. aureus ATCC 25923 (setting [11]), the MIC is 32 µg/mL (≈ 107 µM). In series [1], the IC50 was found to be 100 µM, the “Inhibition of Bc FtsZ At 100 μM” value is “Yes” and the “Inhibits B. cenocepacia FtsZ GTPase at 100µM?” value is on record as “Yes”.

In the case of `CCOC(=O)CSc1c(C)cc2nsnc2c1[N+](=O)[O-]` [compound 11926142], the melting point is 181 to 183 °C. Moreover, in the series on B. cenocepacia J2315 (setting [4]), the MIC was more than 256 µg/mL. In addition, the MIC in the series with B. cenocepacia J2315 (setting [5]) is more than 256 µg/mL. Besides, the MIC in the series on E. coli ATCC 25922 (setting [6]) was more than 256 µg/mL. In addition, in the series with E. coli ATCC 25922 (setting [7]), the MIC was more than 256 µg/mL. For the same molecule, the MIC with P. aeruginosa PAO1 (setting [8]) was more than 256 µg/mL. Also, the MIC in the series on P. aeruginosa PAO1 (setting [9]) was more than 256 µg/mL. Besides, the MIC in the series with S. aureus ATCC 25923 (setting [10]) is 32 µg/mL (≈ 102 µM). In addition, the MIC with S. aureus ATCC 25923 (setting [11]) came to 32 µg/mL (≈ 102 µM). Also, in series [1], the IC50 stood at 100 µM, the “Inhibition of Bc FtsZ At 100 μM” value is given as “Yes” and the “Inhibits B. cenocepacia FtsZ GTPase at 100µM?” value was “Yes”.

B1: B. cenocepacia nitroreductase BCAL0539 (BcNR) (Burkholderia cenocepacia J2315) (protein)
chain: MSVPTASPRVDADAIRSVDTVDAALKSRRAIRAFLPTPVLRDTLEAILEAASRAPSGTNIQPWRVYVATGATRDALAAALTAAYDDPARDEKYVAEYDYYPREWVSPYIDRRRKVGWDLYGLLNIGRDEKARMHAQHARNFRFFDAPVALFFTLDRVMTLGAWLDCGMFLQGVMTAARARGLDTCPQAAFVPFHRIVAEHLDIPANEQLVCGMSLGHADPDAIENRLVTERASVAEFARFFA
Consider B1, for which, in series [2], the Km came to 0.08 ± 0.005 mM, the Vmax stood at 71.9 µmol/min/mg, the kcat came to 165 ± 5.9 s⁻¹ and the kcat/Km came to 2.064e+06 ± 20100 M⁻¹ s⁻¹. For the same molecule, in series [3], the Km is given as 0.20 ± 0.021 mM, the maximum rate (Vmax) was 7.6 µmol/min/mg, the kcat is 17.5 ± 1.4 s⁻¹ and the kcat/Km is 87500 ± 8100 M⁻¹ s⁻¹.
